Data from patent US6878748B2, “Fluorinated cycloalkyl-derivatized benzoylguanidines, process for their preparation, their uses as medicament, and medicament containing them” (Aventis Pharma Deutschland GmbH, priority 2002, dated 2005).

Tests used:
human NHE-1 = molecular target: T1, human NHE-1 (Homo sapiens, UniProt P19634); test: FLIPR assay for NHE-1 inhibition by measurement of the recovery in pHi in transfected cell lines; type: cell-based; conditions: transfected LAP-1 cell line expressing human NHE-1, BCECF fluorescence, read-out: NHE1 inhibition IC50
T1 construct: expressed in transfected cells; host or cells: LAP-1 cells (parental line has no endogenous NHE activity), G418 selection
T1 sequence (P19634 whole entry): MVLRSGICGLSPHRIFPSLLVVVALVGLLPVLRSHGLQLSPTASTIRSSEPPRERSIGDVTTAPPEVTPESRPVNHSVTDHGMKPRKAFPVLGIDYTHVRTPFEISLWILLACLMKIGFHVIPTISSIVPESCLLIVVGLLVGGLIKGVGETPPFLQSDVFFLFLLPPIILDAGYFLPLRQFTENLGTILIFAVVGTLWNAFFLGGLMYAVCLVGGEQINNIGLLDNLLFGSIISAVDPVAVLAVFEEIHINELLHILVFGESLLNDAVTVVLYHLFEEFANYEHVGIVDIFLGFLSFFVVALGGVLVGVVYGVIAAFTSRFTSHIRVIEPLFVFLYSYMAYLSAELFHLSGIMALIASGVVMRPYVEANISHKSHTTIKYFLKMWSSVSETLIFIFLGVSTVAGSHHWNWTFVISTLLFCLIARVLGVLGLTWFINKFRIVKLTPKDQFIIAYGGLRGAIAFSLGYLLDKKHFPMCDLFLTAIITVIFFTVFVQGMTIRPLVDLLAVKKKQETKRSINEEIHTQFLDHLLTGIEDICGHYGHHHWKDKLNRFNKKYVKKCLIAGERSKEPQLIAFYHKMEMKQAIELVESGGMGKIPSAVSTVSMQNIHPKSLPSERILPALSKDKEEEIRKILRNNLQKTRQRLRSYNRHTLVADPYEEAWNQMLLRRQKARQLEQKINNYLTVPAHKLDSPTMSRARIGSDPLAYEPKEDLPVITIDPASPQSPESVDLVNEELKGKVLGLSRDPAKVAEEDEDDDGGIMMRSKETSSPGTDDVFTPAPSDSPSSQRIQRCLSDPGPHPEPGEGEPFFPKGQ
Description: The NHE-1 inhibition was determined as follows:
FLIPR assay for determining NHE-1 inhibitors by measurement of the recovery in pHi in transfected cell lines which express human NHE-1
The assay is carried out in an FLIPR (fluorescent imaging plate reader) with black-walled 96-well microtiter plates with clear bases.
(The growth medium for the transfected cells (Iscove +10% fetal calf serum) additionally contains G418 as selection antibiotic in order to ensure the presence of the transfected sequences.)
The actual assay starts with the removal of the growth medium and addition of 100 μl of loading buffer per well (5 μM BCECF-AM [2′,7′-bis(carboxyethyl)-5-(and -6)-carboxyfluorescein, acetoxymethyl ester] in 20 mM NH4Cl, 115 mM choline chloride, 1 mM MgCl2, 1 mM CaCl2, 5 mM KCl, 20 mM HEPES, 5 mM glucose; pH 7.4 [adjusted with KOH]). The cells are then incubated at 37° C. for 20 minutes. This incubation leads to loading of the cells with the fluorescent dye whose fluorescence intensity depends on pHi, and with NH4Cl, which makes the cells slightly alkaline. [The nonfluorescent dye precursor BCECF-AM is, -as ester, membrane-permeable. The actual dye BCECF, which is not membrane-permeable, is liberated inside cells by esterases.] […]

[H]/N=C(\N)NC(=O)c1cc(S(C)(=O)=O)c(OC2CC(F)(F)C2)cc1C [Example 1, N-[4-(3,3-Difluorocyclobutoxy)-5-methanesulfonyl-2-methylbenzoyl]guanidine]
IC50 (human NHE-1): 5.9 nM
melting point: 273 °C (dec.)
